Values of other authors as cited in patent US20090010992A1 (priority 2007, published 2009).

Conditions: oral cherry-flavored syrup (Versed syrup)

In the case of `Cc1ncc2n1-c1ccc(Cl)cc1C(c1ccccc1F)=NC2` [midazolam], the “bioavailability (erratic)” value is given as 30-50%.
